Laboratory results: patent US10723706B2, “Perk inhibitors and uses thereof in treating diseases associated with aggregation-prone proteins” (Ramot at Tel-Aviv University Ltd., priority 2016, dated 2020)
Entries after “also recorded” stand apart in the source; their conditions may differ.

Tests used:
[1] = system: R6/2 transgenic mice; test: Blood glucose levels in R6/2 HD model and WT mice; assay type: in vivo, mouse
Protocol: Animals were treated for 4 weeks starting at 4 weeks of age with 1 mg/ml MK-28 or with vehicle (DMSO/PEG400 1:1), delivered using Alzet pumps. […] N=13 TG, 13 TG+MK28, 16 WT, 15 WT+MK28, 15 None.
The HD mouse model used was the R6/2 transgenic mice model B6CBA-R6/2 (CAG 160) Jackson Lab USA. R6/2 mice express only the exon 1 of the human Htt gene, including 150 CAG repeats driven by the human Htt promoter directly influencing the transgene expression levels and thereby the development of HD-like pathology. Out of all the existing mouse models of HD, the R6/2 mouse is one that develops symptoms the most rapidly and has the most widespread occurrence of Htt inclusions in the brain. Furthermore, these lines are the most widely used in therapeutic trials. In these animals, the initial signs of motor symptoms commence around 3 weeks of age. […] While R6/2 mice are initially hyperactive, they gradually reduce their motor activity and become hypoactive around 8 weeks of age. Their motor function and coordination progressively deteriorate, and can be detected as a reduction in the time they can stay on a rotating rod, the so-called Rotarod. […]
Alzet pumps were implanted at 4 weeks of age and MK-28 was administered at 1 mg/kg with continuous dosing for 28 days. […] Vocalization tests were also performed and survival was assessed. […]

[2] = system: R6/2 transgenic mice; test: Survival of R6/2 mice; assay type: in vivo, mouse
Protocol: Animals were treated as described in FIGS. 7-9. Transgenic mice receiving MK-28 (blue) or vehicle (red) were analyzed for mice survival (n=13/group). Gehan-Breslow-Wilcoxon Test for comparisons of Kaplan-Meier survival curves indicated a significant increase in the survival of MK-28 treated mice compared to untreated littermates (median survival 97 and 89 days, respectively, p=0.0469). Ratio 1.887, 95% CI of ratio 0.7726 to 4.611.
(§1) Alzet pumps were implanted at 4 weeks of age and MK-28 was administered at 1 mg/kg with continuous dosing for 28 days. This concentration is in a typical clinical dose range. The mice's motor function and coordination were tested by Rotarod, and limb clasping, ledge, gait and kyphosis were also tested. Vocalization tests were also performed and survival was assessed. Tests were performed in two independent blind experiments.

[3] = system: STHdhQ111/111 cells; test: Rescue from UPR-induced cell death (tunicamycin), PI cell cycle FACS, sub-G0/G1 fraction; assay type: cell-based
Protocol: STHdhQ7/7 and STHdhQ111/111 cells were grown as described in Leitman et al. [PLoS One 2014, 9(3):e90803].
After the indicated treatment times in full medium or in DMEM without serum, cells were incubated with propidium iodide (PI) solution ([…]) and read by flow cytometry as described in Leitman et al. [PLoS One 2014, 9(3):e90803]. Cells in sub-G0/G1 were counted as apoptotic/dead cells.
The activity of the novel inhibitors, compared to A4, in preventing cytotoxicity induced by pathogenic Htt, was then tested. A stable murine striatal cell line expressing full-length polyQ-expanded Htt, STHdhQ^111/111, was used.

[4] = system: wild type (WT) mice; test: Toxicity in wild type mice, continuous subcutaneous dosing by Alzet pump; assay type: in vivo, mouse; conditions: 6 mg/kg for 2 weeks
[5] = system: R6/2 transgenic mice; test: Combined motor phenotype (ledge, clasping, gait, kyphosis) in R6/2 mice; assay type: in vivo, mouse
Text: Hind-limb clasping behavior was scored on a scale from 0 to 3: 0=normal; 1=clasps hind limbs within 30 seconds of being suspended in the air; 2=clasps hind limbs within 5 seconds but recovers quickly when released after 30 seconds; 3=clasps hind limbs within 5 seconds and has difficulty recovering when released after 30 seconds.
The ledge test is a direct measure of coordination. Mice were lifted from the cage and placed on the cage's ledge. Mice will typically walk along the ledge and attempt to descend back into the cage. Walking along the ledge without losing its balance is assigned a score of 0. If the mouse loses its footing while walking along the ledge, it receives a score of 1. […] If it falls off the ledge, or nearly so, while walking or attempting to lower itself, or shakes and refuses to move at all despite encouragement, it receives a score of 3.
Gait is a measure of coordination and muscle function. […]
In parallel to the Rotarod analysis motor function and disease severity were evaluated using a simple composite phenotype that includes the combined analysis of hind limb clasping, ledge walk, gait and kyphosis [Guyenet et al., J Vis Exp 2010, (39):1787]. This test has the ability to effectively discriminate between affected and non-affected individuals, while also quantifying the temporal progression of neurodegenerative disease phenotypes such as HD.

[6] = system: R6/2 transgenic mice; test: Ultrasonic vocalization of R6/2 mice; assay type: in vivo, mouse
Protocol: Mice were treated as described in FIGS. 7 and 8. Transgenic mice receiving (MK-28 TG+) or vehicle (TG) were analyzed for vocalization as number of syllables in 5 minutes intervals. (n=3-4, p=0.059).
as §1
Vocalization was evaluated, as it reflects motor and cognitive abilities.

[7] = Weight evaluation after pump implantation; assay type: in vivo, mouse; conditions: TG and WT mice, 7 weeks after pump implantation, 1 mg/kg for 28 days
Protocol: For the therapeutic assessment of MK-28 delivery, Alzet pumps model 1004, with a rate of 0.11 μl/hour and 28 days compound delivery were used. Five groups of mice were studied: (1) Transgenic (TG) treated with MK-28, (2) TG without treatment (pumps with vehicle), (3) Wild-type (WT) treated with MK-28, (4) WT without treatment (pumps with vehicle), (5) WT without pumps.
as §1

[8] = Pharmacokinetics and blood brain barrier penetration, LC/MS/MS; assay type: in vivo, mouse; conditions: WT mice, 10 mg/kg IP
Protocol: FIG. 5 Analysis of Pharmacokinetics (PK) and blood brain barrier (BBB) penetration was done in WT mice using a method based on LC/MS/MS.
Pharmacokinetics (PK) and blood brain barrier (BBB) penetration were analyzed in WT mice.

CN(/N=C\c1ccc(O)c(O)c1)c1nc(-c2ccccc2)cc(-c2ccccc2)n1 [Compound 3, 2-{N-methyl-N′-(3,4-dihydroxybenzylidene)hydrazinyl}-4,6-diphenylpyrimidine]
blood glucose levels in TG mice ([1]; R6/2 TG mice, 4 weeks treatment by Alzet pump from 4 weeks of age): reduced | blood glucose levels in WT mice ([1]; WT mice, 4 weeks treatment by Alzet pump, listed as MK-28): no effect; also recorded: did not affect glucose levels | delay of death initiation versus vehicle ([2]; R6/2 TG mice): ~10 days | increase in median survival versus untreated TG ([2]; R6/2 TG mice): 8 days | median survival ([2]; R6/2 TG mice treated age weeks 4 to 8, n=13/group, p=0.0469): 97 days | Ratio, comparison of Kaplan-Meier survival curves ([2]; R6/2 TG mice, 95% CI of ratio 0.7726 to 4.611): 1.887 | rescue from UPR-induced cell death (cytotoxicity) ([3]; Tun for 48 hours): significantly more potent than A4 | fold lower IC50 than A4 for inhibition of cytotoxicity ([3]; additional ER stress caused by tunicamycin): > 3 fold | toxic effects in WT mice [4]: no toxic effects were observed | combined phenotype score of TG mice versus untreated TG ([5]; R6/2 TG mice, from week 6 after pump implantation, p<0.05, listed as MK-28): lower scores; also recorded: significant improvement | combined phenotype of WT mice ([5]; WT mice, p>0.05): no detrimental effect | vocalization, number of syllables ([6]; R6/2 TG mice treated with MK-28, n=3-4, p=0.059): 13.75 syllables in 5 minutes | vocalization effect versus untreated R6/2 ([6]; R6/2 TG mice, listed as MK-28): three fold difference; also recorded: improved | weight versus vehicle [7]: no significant differences | BBB penetration, peak brain concentration ([8]; brain): 57 ng/mL | T1/2 in brain ([8]; brain): 80 min | time of peak brain concentration ([8]; brain): 40 min | T1/2 in plasma ([8]; plasma): 30 min | peak plasma concentration ([8]; plasma): 105 ng/mL | time of peak plasma concentration ([8]; plasma): 40 min | Kp at 40 minutes ([8]; mouse, brain, read-out: BBB penetration peak as percent of the concentration in plasma): > 0.5
